Organism: Rattus norvegicus
Assay: Open TG-GATES - Regimen: Single
Assay type: toxicity, organism-based, Sprague-Dawley
Set-up: regimen Single, gender Male, age 6 weeks
Conditions: in vivo, po, 100 mg/kg, route gavage, dose level Middle; for APTT / Bas / Eos / Fbg / Hb / Ht / Lym / MCH / MCHC / MCV / Mono / Neu / PT / Plat / RBC / Ret / WBC: tissue Blood; for KIDNEY_L / KIDNEY_R / KIDNEY_TOTAL: tissue Kidney; for LIVER: tissue Liver; for A/G / ALP / ALT / AST / BUN / CRE / Ca / Cl / DBIL / GLC / IP / K / LDH / Na / PL / RALB / TBIL / TC / TG / TP / gamma-GTP: tissue Plasma

CCOC(=O)C(C)(C)Oc1ccc(Cl)cc1 [CLOFIBRATE]
TERMINAL_BW (3 h): 227.5 g | APTT (3 h): 18.9 s | Bas (3 h): 0% | Eos (3 h): 1% | Fbg (3 h): 231.4 mg/dL | Hb (3 h): 13.6 g/dL | Ht (3 h): 39% | Lym (3 h): 76.6% | MCH (3 h): 20.9 pg | MCHC (3 h): 34.8% | MCV (3 h): 60.1 fL | Mono (3 h): 2.6% | Neu (3 h): 19.2% | PT (3 h): 12.3 s | Plat (3 h): 126.5 x10_4/uL | RBC (3 h): 649.6 x10_4/ul | Ret (3 h): 7.1% | WBC (3 h): 87.8 x10_2/uL | KIDNEY_L (3 h): 1 g | KIDNEY_R (3 h): 1 g | KIDNEY_TOTAL (3 h): 1.9 g | LIVER (3 h): 9.9 g | A/G (3 h): 1.6 | ALP (3 h): 1012.4 IU/L | ALT (3 h): 36.8 IU/L | AST (3 h): 68.2 IU/L | BUN (3 h): 10 mg/dL | CRE (3 h): 0.3 mg/dL | Ca (3 h): 10.7 mg/dL | Cl (3 h): 102.6 meq/L | DBIL (3 h): 0.2 mg/dL | GLC (3 h): 201.6 mg/dL | IP (3 h): 9 mg/dL | K (3 h): 3.8 meq/L | LDH (3 h): 203.6 IU/L | Na (3 h): 139.6 meq/L | PL (3 h): 157.6 mg/dL | RALB (3 h): 3.5 g/dL | TBIL (3 h): 0.3 mg/dL | TC (3 h): 75.2 mg/dL | TG (3 h): 121 mg/dL | TP (3 h): 5.7 g/dL | gamma-GTP (3 h): 0.4 IU/L | TERMINAL_BW (6 h): 227.2 g | APTT (6 h): 18.9 s | Bas (6 h): 0% | Eos (6 h): 1% | Fbg (6 h): 232.6 mg/dL | Hb (6 h): 13.7 g/dL | Ht (6 h): 39.5% | Lym (6 h): 79.6% | MCH (6 h): 20.8 pg | MCHC (6 h): 34.6% | MCV (6 h): 60.1 fL | Mono (6 h): 3.2% | Neu (6 h): 16% | PT (6 h): 12.5 s | Plat (6 h): 132.6 x10_4/uL | RBC (6 h): 657.6 x10_4/ul | Ret (6 h): 7.3% | WBC (6 h): 89.7 x10_2/uL | KIDNEY_L (6 h): 1 g | KIDNEY_R (6 h): 1 g | KIDNEY_TOTAL (6 h): 2 g | LIVER (6 h): 10.1 g | A/G (6 h): 1.6 | ALP (6 h): 987.8 IU/L | ALT (6 h): 29.8 IU/L | AST (6 h): 62.8 IU/L | BUN (6 h): 9.2 mg/dL | CRE (6 h): 0.4 mg/dL | Ca (6 h): 10.9 mg/dL | Cl (6 h): 102.4 meq/L | DBIL (6 h): 0.1 mg/dL | GLC (6 h): 196.2 mg/dL | IP (6 h): 9.4 mg/dL | K (6 h): 4.2 meq/L | LDH (6 h): 223.6 IU/L | Na (6 h): 139 meq/L | PL (6 h): 146.8 mg/dL | RALB (6 h): 3.5 g/dL | TBIL (6 h): 0.2 mg/dL | TC (6 h): 73.8 mg/dL | TG (6 h): 106.4 mg/dL | TP (6 h): 5.7 g/dL | gamma-GTP (6 h): 0.6 IU/L
